Assay results taken from the supplement of paper PMC10627819.

Assays:
Assay in all cases: fitness (endpoint OD595 vs no drug) (fraction); higher = more growth
S. aureus Newman = tested on: S. aureus Newman
Outline: (§1)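 Bacterial fitness was scored as optical density at the stationary-phase transition relative to the robust mean of no-drug control wells. Scores are capped at 1. The growth data were OD595 readings every 30 min for 14 h at 37 °C, background-subtracted against the first reading, from 384-well plates inoculated at OD595 0.01 in TSB, LB Lennox or CY.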

S. pneumoniae D39V = tested on: S. pneumoniae D39V
Outline: as §1

B. subtilis 168 = tested on: B. subtilis 168
Outline: as §1
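Also: OD595 on entry to stationary phase over no-drug wells; at most 1.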

Cc1cc(NS(=O)(=O)c2ccc(N)cc2)no1 [Sulfamethoxazol] + CN[C@@H]1[C@H](O[C@H]2[C@H](O[C@H]3[C@H](O)[C@@H](O)[C@H](N=C(N)N)[C@@H](O)[C@@H]3N=C(N)N)O[C@@H](C)[C@]2(O)C=O)O[C@@H](CO)[C@H](O)[C@H]1O [Streptomycin]
fitness
Conditions	first compound 1 µg/mL	first compound 2 µg/mL	first compound 4 µg/mL
B. subtilis 168, partner 2 µg/mL	0.903	0.9	0.888
B. subtilis 168, partner 4 µg/mL	–	–	0.153
B. subtilis 168, partner 8 µg/mL	0.045	0.0312	0.0185
S. aureus Newman, partner 1 µg/mL	0.98	0.939	0.956
S. aureus Newman, partner 2 µg/mL	0.968	0.999	0.93
S. pneumoniae D39V, partner 2 µg/mL	0.962	0.962	0.932
S. pneumoniae D39V, partner 4 µg/mL	0.932	0.932	0.944
S. pneumoniae D39V, partner 8 µg/mL	0.877	0.908	0.95

one replicate
Conditions	fitness
B. subtilis 168, first compound 0.5 µg/mL, partner 2 µg/mL	≥ 1
B. subtilis 168, first compound 0.5 µg/mL, partner 4 µg/mL	≥ 1
B. subtilis 168, first compound 0.5 µg/mL, partner 8 µg/mL	0.0922
S. aureus Newman, first compound 2 µg/mL, partner 8 µg/mL	0.913
S. aureus Newman, first compound 4 µg/mL, partner 8 µg/mL	0.876
S. aureus Newman, first compound 8 µg/mL, partner 2 µg/mL	0.973
S. aureus Newman, first compound 8 µg/mL, partner 4 µg/mL	0.964
S. aureus Newman, first compound 8 µg/mL, partner 8 µg/mL	0.897
S. pneumoniae D39V, first compound 1 µg/mL, partner 16 µg/mL	0.763
S. pneumoniae D39V, first compound 2 µg/mL, partner 16 µg/mL	0.78
S. pneumoniae D39V, first compound 4 µg/mL, partner 16 µg/mL	0.79

O=C(O)[C@H]1/C(=C/CO)O[C@@H]2CC(=O)N21 [Clavulanic acid] + COc1cccc2c1C(=O)c1c(O)c3c(c(O)c1C2=O)C[C@@](O)(C(=O)CO)C[C@@H]3O[C@H]1C[C@H](N)[C@H](O)[C@H](C)O1 [Doxorubicin]
fitness, S. aureus Newman, one replicate
Conditions	first compound 0.03125 µg/mL	first compound 0.0625 µg/mL	first compound 0.125 µg/mL
partner 0.625 µg/mL	0.979	0.984	0.882
partner 1.25 µg/mL	0.905	0.883	0.803
partner 2.5 µg/mL	0.739	0.755	0.753

Conditions	fitness
B. subtilis 168, first compound 1.5 µg/mL, partner 0.625 µg/mL	0.911
B. subtilis 168, first compound 1.5 µg/mL, partner 1.25 µg/mL	0.9
B. subtilis 168, first compound 1.5 µg/mL, partner 2.5 µg/mL	0.696
B. subtilis 168, first compound 3 µg/mL, partner 0.625 µg/mL	0.849
B. subtilis 168, first compound 3 µg/mL, partner 1.25 µg/mL	0.88
B. subtilis 168, first compound 3 µg/mL, partner 2.5 µg/mL	0.625
B. subtilis 168, first compound 6 µg/mL, partner 0.625 µg/mL	0.792
B. subtilis 168, first compound 6 µg/mL, partner 1.25 µg/mL	0.736
S. pneumoniae D39V, first compound 0.5 µg/mL, partner 0.25 µg/mL	0.933
S. pneumoniae D39V, first compound 0.5 µg/mL, partner 0.5 µg/mL	0.954
S. pneumoniae D39V, first compound 0.5 µg/mL, partner 1 µg/mL	0.838
S. pneumoniae D39V, first compound 1 µg/mL, partner 0.25 µg/mL	0.885
S. pneumoniae D39V, first compound 1 µg/mL, partner 0.5 µg/mL	0.853
S. pneumoniae D39V, first compound 1 µg/mL, partner 1 µg/mL	0.813
S. pneumoniae D39V, first compound 2 µg/mL, partner 1 µg/mL	0.706

O=C(O)[C@H]1/C(=C/CO)O[C@@H]2CC(=O)N21 [Clavulanic acid] + COc1c(N2C[C@@H]3CCCN[C@@H]3C2)c(F)cc2c(=O)c(C(=O)O)cn(C3CC3)c12 [Moxifloxacin]
fitness, S. aureus Newman, one replicate
Conditions	first compound 0.03125 µg/mL	first compound 0.0625 µg/mL	first compound 0.125 µg/mL
partner 0.0075 µg/mL	0.823	0.786	0.779
partner 0.015 µg/mL	0.742	0.693	0.699
partner 0.03 µg/mL	0.393	0.312	0.417

fitness
Conditions	partner 0.005 µg/mL	partner 0.01 µg/mL	partner 0.02 µg/mL	partner 0.0312 µg/mL	partner 0.0625 µg/mL	partner 0.125 µg/mL	partner 2 µg/mL	partner 4 µg/mL	partner 8 µg/mL
B. subtilis 168, first compound 1.5 µg/mL	–	–	–	0.0422	0.0379	0.0596	0.0304	0.0307	0.0071
B. subtilis 168, first compound 3 µg/mL	–	–	–	0.0399	0.0399	0.0536	0.0289	0.0394	0.0171
B. subtilis 168, first compound 6 µg/mL	–	–	–	0.0317	0.0196	0.0562	0.0285	0.0252	0.0156
S. pneumoniae D39V, first compound 0.5 µg/mL	0.952	0.982	0.896	0.0616	0.0525	0.0269	–	–	–
S. pneumoniae D39V, first compound 1 µg/mL	0.94	0.964	0.908	0.198	0.173	0.189	–	–	–
S. pneumoniae D39V, first compound 2 µg/mL	0.891	0.939	0.844	0.0371	0.0368	0.0371	–	–	–

O=C(O)[C@H]1/C(=C/CO)O[C@@H]2CC(=O)N21 [Clavulanic acid] + CC1=C\[C@@H](O)CC(=O)Cc2nc(co2)C(=O)N2CCC=C2C(=O)O[C@H](C(C)C)[C@H](C)/C=C/C(=O)NC\C=C\1 [Virginiamycin M1]
fitness, one replicate
Conditions	first compound 0.03125 µg/mL	first compound 0.0625 µg/mL	first compound 0.125 µg/mL	first compound 0.5 µg/mL	first compound 1 µg/mL	first compound 2 µg/mL
S. aureus Newman, partner 0.0625 µg/mL	0.925	0.984	0.908	–	–	–
S. aureus Newman, partner 0.125 µg/mL	0.917	0.977	0.949	–	–	–
S. aureus Newman, partner 0.25 µg/mL	0.971	≥ 1	0.975	–	–	–
S. pneumoniae D39V, partner 0.15 µg/mL	–	–	–	≥ 1	0.929	0.868
S. pneumoniae D39V, partner 0.3 µg/mL	–	–	–	0.875	0.87	0.802

fitness
Conditions	first compound 0.5 µg/mL	first compound 1 µg/mL	first compound 1.5 µg/mL	first compound 2 µg/mL	first compound 3 µg/mL	first compound 6 µg/mL
B. subtilis 168, partner 0.0625 µg/mL	–	–	0.935	–	0.877	0.809
B. subtilis 168, partner 0.125 µg/mL	–	–	0.917	–	0.895	0.7
B. subtilis 168, partner 0.25 µg/mL	–	–	0.927	–	0.841	0.822
S. pneumoniae D39V, partner 0.5 µg/mL	0.991	0.935	–	0.918	–	–
S. pneumoniae D39V, partner 1 µg/mL	≥ 1	0.958	–	0.867	–	–
S. pneumoniae D39V, partner 2 µg/mL	0.957	0.904	–	0.796	–	–

O=C(O)[C@H]1/C(=C/CO)O[C@@H]2CC(=O)N21 [Clavulanic acid] + CN1C2=CC=CC=C2N=C3C1=CC=CC3=O [Pyocyanin]
fitness, S. aureus Newman, one replicate
Conditions	first compound 0.03125 µg/mL	first compound 0.0625 µg/mL	first compound 0.125 µg/mL
partner 1.25 µg/mL	0.884	0.934	0.855
partner 2.5 µg/mL	0.898	0.87	0.827
partner 5 µg/mL	0.723	0.785	0.74

fitness
Conditions	first compound 0.5 µg/mL	first compound 1 µg/mL	first compound 1.5 µg/mL	first compound 2 µg/mL	first compound 3 µg/mL	first compound 6 µg/mL
B. subtilis 168, partner 1.25 µg/mL	–	–	0.91	–	0.798	0.748
B. subtilis 168, partner 2.5 µg/mL	–	–	0.837	–	0.818	0.719
B. subtilis 168, partner 5 µg/mL	–	–	0.678	–	0.665	0.604
S. pneumoniae D39V, partner 0.65 µg/mL	≥ 1	0.94	–	0.861	–	–
S. pneumoniae D39V, partner 1.3 µg/mL	0.765	0.791	–	0.581	–	–

CNC(C)C1CCC(N)C(OC2C(N)CC(N)C(OC3OCC(C)(O)C(NC)C3O)C2O)O1 (centres undefined) [Gentamicin] + CC1=C(C(=O)O)N2C(=O)[C@@H](NC(=O)[C@H](N)c3ccccc3)[C@H]2SC1 [Cephalexin]
fitness, one replicate, main component drawn
Conditions	partner 0.125 µg/mL	partner 0.25 µg/mL	partner 0.5 µg/mL	partner 1 µg/mL
B. subtilis 168, first compound 0.0625 µg/mL	–	–	–	0.986
B. subtilis 168, first compound 0.125 µg/mL	–	–	–	0.941
B. subtilis 168, first compound 0.25 µg/mL	–	–	–	0.418
S. aureus Newman, first compound 0.375 µg/mL	–	≥ 1	≥ 1	≥ 1
S. aureus Newman, first compound 0.75 µg/mL	–	≥ 1	≥ 1	≥ 1
S. aureus Newman, first compound 1.5 µg/mL	–	0.986	0.877	0.963
S. pneumoniae D39V, first compound 2 µg/mL	0.962	0.96	0.947	–
S. pneumoniae D39V, first compound 4 µg/mL	0.993	0.955	≥ 1	–
S. pneumoniae D39V, first compound 8 µg/mL	0.93	0.965	0.956	–

main component drawn
Conditions	fitness
B. subtilis 168, first compound 0.0625 µg/mL, partner 0.125 µg/mL	0.852
B. subtilis 168, first compound 0.0625 µg/mL, partner 0.25 µg/mL	0.938
B. subtilis 168, first compound 0.0625 µg/mL, partner 0.5 µg/mL	0.882
B. subtilis 168, first compound 0.125 µg/mL, partner 0.125 µg/mL	0.0869
B. subtilis 168, first compound 0.25 µg/mL, partner 0.125 µg/mL	0.0552
B. subtilis 168, first compound 0.25 µg/mL, partner 0.25 µg/mL	0.0555
B. subtilis 168, first compound 0.25 µg/mL, partner 0.5 µg/mL	0.0535
S. aureus Newman, first compound 0.5 µg/mL, partner 0.25 µg/mL	0.968
S. aureus Newman, first compound 0.5 µg/mL, partner 0.5 µg/mL	0.964
S. aureus Newman, first compound 0.5 µg/mL, partner 1 µg/mL	0.922
S. aureus Newman, first compound 1 µg/mL, partner 0.25 µg/mL	≥ 1
S. aureus Newman, first compound 1 µg/mL, partner 0.5 µg/mL	0.986
S. aureus Newman, first compound 1 µg/mL, partner 1 µg/mL	≥ 1
S. aureus Newman, first compound 2 µg/mL, partner 0.25 µg/mL	0.993
S. aureus Newman, first compound 2 µg/mL, partner 0.5 µg/mL	≥ 1
S. aureus Newman, first compound 2 µg/mL, partner 1 µg/mL	≥ 1
S. pneumoniae D39V, first compound 2 µg/mL, partner 2 µg/mL	0.0158
S. pneumoniae D39V, first compound 2 µg/mL, partner 4 µg/mL	0.0234
S. pneumoniae D39V, first compound 4 µg/mL, partner 1 µg/mL	0.424
S. pneumoniae D39V, first compound 4 µg/mL, partner 2 µg/mL	0.0331
S. pneumoniae D39V, first compound 4 µg/mL, partner 4 µg/mL	0.026
S. pneumoniae D39V, first compound 8 µg/mL, partner 1 µg/mL	0.401
S. pneumoniae D39V, first compound 8 µg/mL, partner 2 µg/mL	0.0415
S. pneumoniae D39V, first compound 8 µg/mL, partner 4 µg/mL	0.0404
